Test results published in US9173392B2, “Emulsifiable concentrate” (priority 2010, dated 2015).

Tests used:
[1] = Determination of VOC content (percentage weight loss of solvent aliquot on heating); format: physicochemical; conditions: 10 mg aliquot, furnace 35° C. raised 5° C. per minute, held isothermally at 115° C.
Method: A series of solvents are evaluated to determine a content of volatile organic compounds (VOCs) and suitability for use in this invention. More specifically, the 1,2-cyclohexanedicarboxylic acid diisononyl ester (Hexamoll® Dinch) of this invention is evaluated as Solvent 1. Twelve additional comparative solvents (Comparative Solvents 1-12) are also evaluated.
After addition of the aliquots to the pans, the pans are placed in a furnace at 35° C. The temperature of the furnace is then raised at a rate of 5° C. per minute and held isothermally at 115° C. When mass loss stabilizes at less than 0.5% for 5 minutes, the temperature is then held at 115° C. for an additional 15 minutes. Total run times average about 80 minutes. The results of the VOC content evaluations are set forth in Table 1 below wherein all values represent percentage weight loss of the aliquot and correlate to approximate VOC content.

[2] = Active component solubility in solvents at 10° C. and 54° C. (visual, HPLC for undissolved samples); conditions: for Approximate Percent (%) Solubility Determination of Active Components in Solvents (Malathion At 10° C.) / Approximate Percent (%) Solubility Determination of Active Components in Solvents (Malathion At 54° C.): 20 g Malathion in 10 g solvent; for Approximate Percent (%) Solubility Determination of Active Components in Solvents (Malathion At 10° C.) / Approximate Percent (%) Solubility Determination of Active Components in Solvents (Metolachlor At 10° C.): about two weeks at 10° C.; for Approximate Percent (%) Solubility Determination of Active Components in Solvents (Malathion At 10° C.) / Approximate Percent (%) Solubility Determination of Active Components in Solvents (Malathion At 54° C.) / Approximate Percent (%) Solubility Determination of Active Components in Solvents (Metolachlor At 10° C.) / Approximate Percent (%) Solubility Determination of Active Components in Solvents (Metolachlor At 54° C.): totally soluble = no particles visually detectable; for Approximate Percent (%) Solubility Determination of Active Components in Solvents (Malathion At 54° C.) / Approximate Percent (%) Solubility Determination of Active Components in Solvents (Metolachlor At 54° C.): about two weeks at 54° C.; for Approximate Percent (%) Solubility Determination of Active Components in Solvents (Metolachlor At 10° C.) / Approximate Percent (%) Solubility Determination of Active Components in Solvents (Metolachlor At 54° C.): 20 g Metolachlor in 10 g solvent; for miscible in the Solvent 1 up to: active component in Solvent 1 (Examples 1-3)

| Compound | % Total Weight Loss = VOC Content [1] | Approximate Percent (%) Solubility Determination of Active Components in Solvents (Malathion At 10° C.) [2] | Approximate Percent (%) Solubility Determination of Active Components in Solvents (Malathion At 54° C.) [2] | Approximate Percent (%) Solubility Determination of Active Components in Solvents (Metolachlor At 10° C.) [2] | Approximate Percent (%) Solubility Determination of Active Components in Solvents (Metolachlor At 54° C.) [2] | miscible in the Solvent 1 up to [2] |
| --- | --- | --- | --- | --- | --- | --- |
| CC1COC(=O)O1 (stereo not shown) [Comparative Solvent 5, propylene carbonate] | 100% | Totally Soluble | Totally Soluble | Totally Soluble | Totally Soluble | – |
| CC(O)CO (stereo not shown) [Comparative Solvent 7, propylene glycol] | 100% | Totally Soluble | Totally Soluble | Totally Soluble | Totally Soluble | – |
| COC(=O)CCCCC(=O)OC [Comparative Solvent 10, dimethyl adipate] | 100% | Totally Soluble | Totally Soluble | Totally Soluble | Totally Soluble | – |
| CCOC(=O)CC(SP(=S)(OC)OC)C(=O)OCC (stereo not shown) [Malathion] | – | – | – | – | – | approximately 66 weight percent |
| CCc1cccc(C)c1N(C(=O)CCl)C(C)COC (stereo not shown) [Metolachlor] | – | – | – | – | – | approximately 66 weight percent |
| CC(C)CCCCCCOC(=O)C1CCCCC1C(=O)OCCCCCCC(C)C (stereo not shown) [Solvent 1, 1,2-cyclohexanedicarboxylic acid diisononyl ester] | 0.33% | Totally Soluble | Totally Soluble | Totally Soluble | Totally Soluble | – |
